One data set has as its system beta amyloid 40. The data set can be described thus: Aβ40/42 ELISA Assay (Aβ40). Particulars: Cricetulus griseus; CHO cells carrying the APP-REP-NL plasmid, 22 hours, sandwich ELISA. Type of data set: cell-based. The procedure: (§1) Compounds are diluted from DMSO stocks to 2 μM and below in a cell culture medium. Compounds are then applied to CHO cells carrying the APP-REP-NL plasmid [Sudhir et. al, J. Biolog. Chem. 267:25602-25608 (1992)] for a period of 22 hours. After the conditioning period, medium is collected, diluted in assay buffer containing protein, and samples, controls, and synthetic peptide standards are incubated on a prepared ELISA plate. Using a sandwich ELISA with antibodies specifically directed against the carboxyl terminus of beta amyloid 40 or 42 (analogous to the method reported by Haugabook et al., J. Neurosci. Methods 108:171-179 (2001) but using goat anti-mouse IgG1 (source: Southern Biotech) as the anchor, 6E10 as the capture antibody (Source: SENETEK), rabbit antiAβ40 and antiAβ42 (source: QCB) and APL-donkey anti-rabbit IgG (H+L, source: Southern Biotech) as the detection antibody), the effect of the compound treatment on the cellular production of extracellular beta amyloid is quantified. Cells treated with compound are subsequently incubated in cell culture medium containing MTS-formazan. After a short incubation period, MTS/medium containing plates are read in a spectrophotometer to determine the extent to which compound toxicity affected the cell's metabolism and ability to synthesize beta amyloid.
(§2) A. Test Samples: compound samples are supplied as 20 mM stock solutions in a 100% DMSO solution.
(§3) B. APP-REP-NL cells: Qualified cell lines are carried from week to week using 1:100 dilutions and are cultured in DMEM supplemented with 1× antibiotic/antimycotic, 200 ug/ml of G418 antibiotic, and 10% certified fetal calf serum. Cells are also banked in liquid nitrogen. Periodically, beta amyloid production is assessed, and cells are either kept in culture or replaced with progenitors at full expression.
(§4) C. Antibodies: From certified lots that have already been qualified in this assay. Antibodies are stored in small frozen aliquots at −80° C. that are thawed and used.
(§5) A compound is considered active if it has an EC50 for Aβ40 reduction of <100 μM and no toxicity at doses in the vicinity of the EC50.

A further data set concerns beta amyloid 42. The data set can be described thus: Aβ40/42 ELISA Assay (Aβ42). Type of data set: cell-based. Particulars: CHO cells carrying the APP-REP-NL plasmid, 22 hours, sandwich ELISA; for EC50: Cricetulus griseus. The protocol: as §1, §2, §3, §4, §5
In data set [1] the test system is amyloid precursor protein (APP) proteolysis. The experiment in a line: Repressor Release Assay (RRA). The class given is cell-based. More on the design: key to RRA data (footnote symbols): **: Inactive due to toxicity; however, this compound, at 3-4 μM, reduces Aβ levels by 50% in CHO cells transfected with human APP695 as measured by ELISA without exhibiting toxicity.; ***: Inactive; however, this compound, at 1-4 μM, reduces Aβ levels by 50% in CHO cells transfected with human APP695 as measured by ELISA without exhibiting toxicity. Particulars: transfected CHO-K1 cells; for fold induction at 20 µg/mL: Cricetulus griseus, CHO-K1, all compounds tested at 20 μg/mL, luciferase activity over diluent control, read-out: RRA data (Fold increase of APPI). The procedure: The beta amyloid inhibitory activity of many of the compounds of the present invention has been determined using the Repressor Release Assay (RRA). See, Table 3 below. A compound is considered active in RRA if it leads to at least a 1.5 fold increase in luciferase activity at 20 μg/mL and is non-toxic.
The compound is considered active in RRA if it leads to at least a 1.5 fold increase in APPI as measured by an increase in luciferase activity at 20 μg/mL and is non-toxic. Shuey, D. J., Sheiffele, P., Jones, D., Cockett, M. I., and Quinet, E. M. (1999) Repressor release: a useful tool for monitoring amyloid precursor protein (APP) proteolysis in mammalian cells. Society for Neuroscience Abstracts, Vol. 25, 29th Annual Meeting of Society for Neuroscience, Miami Beach, Fla., Oct. 23-28, 1999.
CHO—K1 cells are cultured in whole DMEM media (DMEM—High Glucose with 10% fetal bovine serum, 1% Non-essential Amino Acids, and 1% Penicillin-Streptomycin) at 37° C. with 5% CO2. Two million cells are plated into 10-cm dishes 24 hrs prior to transfection.
Transient transfections are completed as recommended by Gibco BRL using their Lipofectamine Plus system. First, 6 μg of pRSVO-luc and 6 μg of APP-lacI construct DNA are added to 460 μL Opti-Mem transfection media and incubated with 30 μL Plus reagent for 15 minutes. Then, a lipid mixture of 40 μL Lipofectamine reagent and 460 μL Opti-Mem transfection media is incubated with the DNA-Plus reagent mixture for 15 minutes. During the DNA-lipid incubation, the CHO—K1 cells are washed once and covered in 5.0 mL DMEM media without Penicillin-Streptomycin. The DNA-lipid preparation is then layered onto these cells and incubated at 37° C. overnight.
One and one half million transfected cells per well (100 μL total volume) are plated into sterile, opaque Packard 96-well Cultur-Plates in clear DMEM whole media (DMEM—without phenol red) and incubated at 37° C. with 5% CO2 for 3-5 hours.
Compounds are diluted using two different protocols; one protocol is used for compounds supplied neat (weighed powder in vial) and the other protocol is used for compounds supplied in solution (20 mM in DMSO in 96-well plates). For both protocols, 25 mM Hepes and 25 mM Hepes/1% DMSO are prepared fresh to be used as diluent. The Hepes/DMSO is used as the diluent control on all experimental plates.
The following Table 1 depicts the steps for compound dilution (the last step is the addition of compound to cells/media in tissue culture plate):
Because some compounds arrive in 96-well format at 20 mM, the following Table 2 represents the protocol for their dilution (an average molecular weight of these compounds was used to calculate these dilutions and as above, the last step is the addition of compound to cells/media in tissue culture plate):
Once compounds are diluted, they are applied in duplicate on cells in tissue culture plates (prepared above). Cells are incubated with compound at 37° C. with 5% CO2 for an additional 36-48 hours.
Luciferase assays (LucLite reagent, Packard) are performed and are read on a Packard TopCount instrument. Media is removed from each 96-well plate and replaced with 100 μL PBS per well (with Mg^2+ and Ca^2+). An equal volume (100 μL) of the LucLite lysis/substrate buffer is added to each well and the plates are sealed and mixed in the dark on a rotary shaker for 15-30 minutes at room temperature. Luciferase readings are then taken on the TopCount instrument. Measurements are expressed as relative light units (RLU) and are calculated and analyzed in MS Excel as follows:
Fold Increase: amount of luciferase activity (measured in relative light units) over diluent control.
SEM: standard error of the mean for fold increase.
Activity: A compound is considered active if it results in at least a 1.5 fold increase in luciferase activity at 20 μg/mL.
Toxicity: determined by loss of signal (<0.75 fold increase).

Take `CCC(CC)C(c1ccnn1-c1ccccc1)N(C)S(=O)(=O)c1ccc(Cl)cc1` (centres unmarked) [Example 44, 4-Chloro-N-[2-ethyl-1-(1-phenyl-1H-pyrazol-5-yl)butyl]-N-methylbenzenesulfonamide]: the melting point (in general, the temperature, or range, at which the solid turns liquid) lay within 86.5 to 89 °C. The half-maximal effective concentration (EC50) (in general, the concentration that produces a half-maximal response) with beta amyloid 40 is 35.7 µM.
As for `CCC(CC)C(c1ccnn1-c1ccccc1)N(C)S(=O)(=O)c1cc(Cl)c(Cl)s1` (centres unmarked) [Example 45, 4,5-Dichloro-N-[2-ethyl-1-(1-phenyl-1H-pyrazol-5-yl)butyl]-N-methylthiophene-2-sulfonamide], the melting point was 99 to 100.4 °C. Further, the “Effect on Aβ42 production” value in the data set with beta amyloid 42 is “increase”. In the data set on beta amyloid 40, this molecule had an EC50 of 33.6 µM.
With `CCC(CC)C(c1ccnn1-c1ccccc1)N(C)S(=O)(=O)c1ccc(Br)s1` (centres unmarked) [Example 48, 5-Bromo-N-[2-ethyl-1-(1-phenyl-1H-pyrazol-5-yl)butyl]-N-methylthiophene-2-sulfonamide], the melting point fell in the range of 115.6 to 118 °C. For the same molecule, the “Effect on Aβ42 production” value in the data set on beta amyloid 42 is “increase”. Besides, a half-maximal effect in the data set on beta amyloid 40 (EC50) was put at 65.1 µM.
`CCC(CC)C(NS(=O)(=O)c1cc(Cl)c(Cl)s1)c1ccnn1-c1ccccc1` (centres unmarked) [Example 38, 4,5-Dichloro-N-[2-ethyl-1-(1-phenyl-1H-pyrazol-5-yl)butyl]thiophene-2-sulfonamide] came in with a melting point of 116 to 119.6 °C. Moreover, the “Effect on Aβ42 production” value with beta amyloid 42 was “increase”. This molecule had a concentration giving a half-maximal response (EC50) with beta amyloid 40 of 13.3 µM.
In the same order, the values of `CCC(CC)C(c1ccnn1-c1ccccc1)N(C)S(=O)(=O)c1ccc(C#N)cc1` (centres unmarked) [Example 43, 4-Cyano-N-[2-ethyl-1-(1-phenyl-1H-pyrazol-5-yl)butyl]-N-methylbenzenesulfonamide] are 37.8 to 54 °C, “increase” and 47.9 µM.
Take `CC(C)C(NS(=O)(=O)c1ccc(Cl)s1)c1ccnn1-c1ccccc1` (centres unmarked) [Example 12, 5-Chloro-N-[2-methyl-1-(1-phenyl-1H-pyrazol-5-yl)propyl]thiophene-2-sulfonamide]: the half-maximal effective concentration (EC50) worked out at 3.3 µM in the data set with beta amyloid 42 and 1.4 µM in the data set on beta amyloid 40. In data set [1] (tested at 20 μg/mL), the “RRA data (footnote symbols)” value was “***”.
On to `CCC(CC)C(NS(=O)(=O)c1ccc(Cl)cc1)c1ccnn1Cc1ccc(OC)cc1` (centres unmarked) [Example 2, 4-Chloro-N-{2-ethyl-1-[1-(4-methoxybenzyl)-1H-pyrazol-5-yl]butyl}benzenesulfonamide], for which the results for the EC50 with beta amyloid 42 and in the data set on beta amyloid 40 were 13 µM and 6.4 µM, respectively. Besides, the fold induction at 20 µg/mL in data set [1] amounted to 11.3.
In the same order, the values of `CCC(CC)C(NS(=O)(=O)c1ccc(Cl)s1)c1ccnn1-c1ccc(O)cc1` (centres unmarked) [Example 11, 5-Chloro-N-{2-ethyl-1-[1-(4-hydroxyphenyl)-1H-pyrazol-5-yl]butyl}thiophene-2-sulfonamide] are 2.7 µM, 1 µM and 3.
On to `CCC(CC)C(NS(=O)(=O)c1ccc(Cl)s1)c1ccnn1-c1ccc(OC)cc1` (centres unmarked) [Example 10, 5-Chloro-N-{2-ethyl-1-[1-(4-methoxyphenyl)-1H-pyrazol-5-yl]butyl}thiophene-2-sulfonamide], for which the EC50 in the data set on beta amyloid 42 turned out to be 10.1 µM; in the data set with beta amyloid 40, 4 µM. In addition, the fold induction at 20 µg/mL in data set [1] is 1.7.
`CCC(CC)C(NS(=O)(=O)c1ccc(Cl)s1)c1ccnn1-c1ccc(C(F)(F)F)cc1` (centres unmarked) [Example 18, 5-Chloro-N-(2-ethyl-1-{1-[4-(trifluoromethyl)phenyl]-1H-pyrazol-5-yl}butyl)thiophene-2-sulfonamide]: the values for the EC50 with beta amyloid 42 and in the data set on beta amyloid 40 were 10.7 µM and 5.9 µM, respectively. The fold induction at 20 µg/mL in data set [1] stood at 2.3.
In the case of `CC(NS(=O)(=O)c1ccc(Cl)s1)c1ccnn1-c1ccccc1` (centres unmarked) [Example 13, 5-Chloro-N-[1-(1-phenyl-1H-pyrazol-5-yl)ethyl]thiophene-2-sulfonamide], the figures for the EC50 in the data set with beta amyloid 42 and with beta amyloid 40 were 5.1 µM and 4.8 µM, respectively. Besides, in data set [1], the fold induction at 20 µg/mL is 6.4.
On the same counts, the results for `Cc1cccc(-n2nccc2C(NS(=O)(=O)c2ccc(Cl)s2)C(C)C)c1` (centres unmarked) [Example 16, 5-Chloro-N-{2-methyl-1-[1-(3-methylphenyl)-1H-pyrazol-5-yl]propyl}thiophene-2-sulfonamide] are 4.4 µM, 3.5 µM and 4.
In the same order, the values of `COc1ccc(Cn2nccc2C(C)NS(=O)(=O)c2ccc(Cl)s2)cc1` (centres unmarked) [Example 4, 5-Chloro-N-{1-[1-(4-methoxybenzyl)-1H-pyrazol-5-yl]ethyl}thiophene-2-sulfonamide] are 1.3 µM, 1.8 µM and 2.3.
On the same counts, the results for `CCC(CC)C(NS(=O)(=O)c1ccc(Cl)s1)c1nccn1Cc1ccc(O)cc1` (centres unmarked) [Example 30, 5-Chloro-N-{2-ethyl-1-[1-(4-hydroxybenzyl)-1H-imidazol-2-yl]butyl}thiophene-2-sulfonamide] are 9.8 µM, 5.2 µM and 8.6.
On to `CCC(CC)C(NS(=O)(=O)c1ccc(Cl)s1)c1ncnn1Cc1ccccc1` (centres unmarked) [Example 22, N-[1-(1-Benzyl-1H-1,2,4-triazol-5-yl)-2-ethylbutyl]-5-chlorothiophene-2-sulfonamide], for which the EC50 in the data set on beta amyloid 42 and with beta amyloid 40 was 1.5 µM each time. In addition, the fold induction at 20 µg/mL in data set [1] is 7.2.
For the molecule `COc1ccc(Cn2cccc2C(NS(=O)(=O)c2ccc(Cl)s2)C(C)C)cc1` (centres unmarked) [Example 32, 5-Chloro-N-{1-[1-(4-methoxybenzyl)-1H-pyrrol-2-yl]-2-methylpropyl}thiophene-2-sulfonamide], the “Effect on Aβ42 production” value with beta amyloid 42 was “increase”. The fold induction at 20 µg/mL in data set [1] turned out to be 6.6. The concentration giving a half-maximal response (EC50) in the data set with beta amyloid 40 came out at 13.3 µM.

The record behind these values is patent US7674813B2, “Heterocyclic sulfonamide inhibitors of beta amyloid production containing an azole” (Wyeth, priority 2004, dated 2010).
